Tests used:
[1] = test system: Exon 22 truncated CFTR mRNA; assay: ddPCR of Exon 22 truncated CFTR mRNA in 16HBE14o- WT cells treated with ASOs; type: cell-based, human
Experimental: Free uptake ASO treatments in 16HBEs. Steric blocking ASOs were purchased from IDT with Phosphorothioate (PS) backbone and 2-O-Methoxyethyl (2′-MOE) modifications at each nucleotide. Lyophilized steric blocking ASOs were resuspended in PBS+Mg+Ca to 1 mM and stored in frozen aliquots to minimize the effects of freeze thaw cycles. 16HBEge and 16HBE14o- lines were seeded at 0.150×10^6 cells/well in 24 well plates and grown at 37° C./5% CO2 in MEM supplemented with 10% FBS and 1% Penicil-lin/Streptomycin. After 24 hours, media was refreshed with addition of ASOs and RNA was harvested after 48 hours of treatment.
ddPCR Isoform Quantification. RNA was isolated from treated cells with the Aurum Total RNA Mini Kit. One Step reverse transcriptase and quantitative PCR was performed with the iTaq Universal Probes One Step Kit. All qPCR was run on the CFX Touch Deep Well real-time PCR detection system and analyzed with Bio-Rad CFX Maestro 1.0 software (version 4.0.2325.0418). ddPCR assays were composed of: cDNA or digested genomic DNA, 2×ddPCR Supermix for Probes (no dUTP) (1× final) (Bio-Rad), 40× as-say (1× final), and nuclease free water in 20 μl total reaction volume. cDNA synthesis was performed with the iScript Advanced cDNA Synthesis Kit for RT-qPCR (Bio-Rad). […]

[2] = biological target: Exon 22 truncated CFTR (Homo sapiens, UniProt P13569); assay: TECC-24 assay in 16HBEge-W1282X cells; type: cell-based; design: contain the first 1239 amino acids of a WT CFTR; endogenous in cells; conditions: for FSK+VX-770 AUC/min: in combination SA-08 10 μM
Experimental: Electrophysiology. Clonal lines were seeded at a density of 4.5×10^5 cells cm-2 onto HTS Transwell 24-well filter inserts pre-coated with human collagen type IV. Cells were grown as submerged cultures in MEM (Gibco, 11095) containing 10% FBS and 1% Pen/Strep, and incubated at 37° C. and 5% CO2. Cells were treated from both the basolateral and apical side with fresh medium containing either control (vehicle) or test article for the treatment time indicated in the figure legends. After a total of 7 days, 16HBE cells typically formed electrically tight epithelia with a transepithelial resistance (Rt) of 200-600 Ω·cm2 and CFTR-mediated Cl— equivalent current (Ieq) was determined as described below.
Prior to functional (Ieq) studies, MEM was replaced with fresh HEPES-buffered (pH 7.4) solutions (assay buffer). A driving force for chloride ions was established through application of a basolateral to apical chloride ion gradient (see buffer composition below). Cell plates were mounted onto an automated robotic assay platform and equilibrated at ˜36° C. for 90 min. After equilibration, transepithelial voltage (Vt) and resistance (Rt) were monitored at ˜5 min intervals using a 24-channel transepithelial current clamp amplifier (TECC-24, EP Design, Bertem, Belgium). Electrode potential differences for each pair of Ag/AgCl voltage electrodes were also monitored at 5 min intervals by taking voltage measurements from a control plate with matching buffer solutions and 16HBE cells that were left untreated. Ieq was calculated from values of Vt and Rt using Ohm's law after correcting for series resistance and (electrode) voltage offsets unrelated to Vt. Ieq traces are plotted as mean±SD (n=3). The first 4 data points reflect baseline Ieq currents prior to sequential stimulation of CFTR with forskolin (10 μM) and VX-770/ivacaftor (1 μM). The last six data points were recorded in the presence of CFTR inhibitor CFTRinh-172 (20 μM). Agonists/antagonists were pre-diluted to 10-fold concentrations in assay buffer and add-ed to either the basolateral (forskolin) or apical (forskolin, VX-770/ivacaftor, and CFTRinh-172) side of the membrane (assay plates only). CFTR-mediated changes in Ieq, (i.e., delta forskolin, delta VX-770, delta CFTRinh-172, or the area under the curve (AUC) between forskolin and CFTRinh-172 addition) are used as a measure of functional CFTR surface expression or treatment-related functional rescue of mutant CFTR.
Assay buffer: CFTR-mediated transepithelial currents were recorded using a Cl— concentration gradient. The basolateral solution contained (mM): 137 NaCl, 4 KCl, 1.8 CaCl2, 1 MgCl2, 10 HEPES and D-Glucose, adjusted to pH 7.4 with NaOH/HCl ([CI-] total: 146.6 mM). The apical solution was matched to the basolateral except for (mM): 137 Na-gluconate replaced 137 NaCl ([Cl—] total: 9.6 mM).
The function of Exon 22 truncated CFTR protein was assayed by the transepithelial chloride conductance assay (TECC-24 assay), as depicted in FIG. 15A and FIG. 15B. 16HBEge-W1282X cells were incubated in 0.02% DMSO (vehicle) or VX445/VX661 prior to the TECC assay. Characteristic CFTR responses to forskolin, potentiator (VX-770), and CFTR inhibition (Inh-172) were recorded in the presence and absence of various doses and combinations of ASO treatments. […] ASO treatment further induced a larger chloride channel conductance compared to no ASO treatment.
The function of various CFTR proteins in the cells can be assessed by comparing the area under curve (AUC) of the induced chloride conductance obtained in the electrophysiology assays. The AUC of various mutant cell lines (e.g., 16HBEge-W1282X cells), with or without treatment, can be normalized to the AUC obtained from cells expressing WT CFTR protein and expressed as either a percentage of WT CFTR (% WT CFTR) or a ratio to WT CFTR (variant/WT CFTR). […]

Chain of Exon 22 truncated CFTR (P13569 with tags, fused parts or gaps): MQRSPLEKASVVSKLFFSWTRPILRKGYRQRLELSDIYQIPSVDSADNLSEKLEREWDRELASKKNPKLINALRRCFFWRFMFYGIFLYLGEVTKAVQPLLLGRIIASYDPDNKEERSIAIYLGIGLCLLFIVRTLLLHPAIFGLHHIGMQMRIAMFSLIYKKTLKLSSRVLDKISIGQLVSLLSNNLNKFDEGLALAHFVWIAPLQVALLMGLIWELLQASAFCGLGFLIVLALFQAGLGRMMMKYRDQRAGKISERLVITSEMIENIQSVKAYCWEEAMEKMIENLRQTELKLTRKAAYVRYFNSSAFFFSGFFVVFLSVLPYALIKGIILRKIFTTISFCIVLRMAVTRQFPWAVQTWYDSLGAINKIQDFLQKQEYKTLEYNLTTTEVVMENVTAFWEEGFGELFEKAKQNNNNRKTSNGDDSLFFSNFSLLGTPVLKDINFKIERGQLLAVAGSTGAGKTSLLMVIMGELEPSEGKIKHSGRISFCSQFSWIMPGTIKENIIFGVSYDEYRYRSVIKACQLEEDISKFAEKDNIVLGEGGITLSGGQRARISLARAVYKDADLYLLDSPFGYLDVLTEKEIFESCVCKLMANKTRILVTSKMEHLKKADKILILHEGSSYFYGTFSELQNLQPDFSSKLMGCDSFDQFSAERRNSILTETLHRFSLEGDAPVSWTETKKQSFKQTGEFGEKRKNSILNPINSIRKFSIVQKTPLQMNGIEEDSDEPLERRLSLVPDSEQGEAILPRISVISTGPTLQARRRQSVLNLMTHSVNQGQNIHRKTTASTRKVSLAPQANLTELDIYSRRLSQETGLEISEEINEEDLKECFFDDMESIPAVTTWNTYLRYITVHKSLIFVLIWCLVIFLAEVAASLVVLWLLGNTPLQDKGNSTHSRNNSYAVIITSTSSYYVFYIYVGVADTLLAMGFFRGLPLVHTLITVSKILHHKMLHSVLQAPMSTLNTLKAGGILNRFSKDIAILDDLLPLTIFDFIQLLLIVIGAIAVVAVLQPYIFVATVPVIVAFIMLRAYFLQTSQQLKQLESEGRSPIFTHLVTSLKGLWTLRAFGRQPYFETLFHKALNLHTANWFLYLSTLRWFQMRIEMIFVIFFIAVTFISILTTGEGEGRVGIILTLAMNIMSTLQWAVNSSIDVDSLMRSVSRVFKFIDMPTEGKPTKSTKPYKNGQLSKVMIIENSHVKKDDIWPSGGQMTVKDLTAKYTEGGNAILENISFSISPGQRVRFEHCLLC

Ex22 truncated CFTR function, of WT CFTR function ([2]; Trikafta (3/3 μM VX-661/445 48 h, 3 μM VX-770), no ASO) [%]	Substance	Exon 22 truncated CFTR mRNA, of FL CFTR level in WT cells [1] [%]	chloride conductance AUC, of WT ([2]; 0.1 μM SA08, with Trikafta)	chloride conductance AUC, of WT ([2]; 1 μM SA08, with Trikafta) [%]	chloride conductance AUC, of WT ([2]; 2 μM SA08, with Trikafta) [%]	chloride conductance AUC, of WT ([2]; 10 μM SD10, with Trikafta)	increase in AUC (of WT) ([2]; 10 μM SD10, without Trikafta treatment) [%]	FSK+VX-770 AUC/min ([2]; (+) VX-445/VX-661 (3/3 μM), SD-10 100 μM)	FSK+VX-770 AUC/min ([2]; (+) VX-445/VX-661 (3/3 μM), SD-10 printed '(μM)' / 10 μM)	FSK+VX-770 AUC/min ([2]; (−) VX-445/VX-661, SD-10 100 μM)	FSK+VX-770 AUC/min ([2]; (−) VX-445/VX-661, SD-10 printed '(μM)' / 10 μM)
	ataaggtaaaagtgatgggatc (antisense ATAAGGTAAAAGTGATGGGATC; all 2'-MOE, all phosphorothioate, methylation of C not given here) [SA8, PS backbone, 2′-MOE]	~25	about 3.1%	~4.9	~6.2						
	aaagcaagcagtgttcaaatct (antisense AAAGCAAGCAGTGTTCAAATCT; all 2'-MOE, all phosphorothioate, methylation of C not given here) [SD10, PS backbone, 2′-MOE]	~37				about 9%	2.9	11.5+/−0.5 μA/cm^2	10.4+/−1.2 μA/cm^2	4.6+/−0.4 μA/cm^2	5.5+/−0.7 μA/cm^2
~3	elexacaftor/ivacaftor/tezacaftor [Trikafta]										

Source: US20260125686A1, “COMPOSITIONS AND METHODS FOR MODULATION OF CFTR” (Cystic Fibrosis Foundation, priority 2022, published 2026)
